The test system of this test is M. tuberculosis H37Rv growth inhibition with meropenem. The test can be described thus: dose response, H37Rv, with and without meropenem (AID 434987).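 Note: growth over 7 days at 37 °C before Alamar Blue read on day 9.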
Setting [1] is: M. tuberculosis H37Rv growth inhibition, measured here: IC50 without meropenem.
Where [2] appears, read: M. tuberculosis H37Rv growth inhibition, measured here: IC90 without meropenem.
The mark [3] stands for this setting: measured here: IC90 with meropenem.

Active and inactive are the calls of the source. The rule behind the calls is not given here.

Here are results for 22 compounds from PubChem BioAssay AID434987 (Southern Research Specialized Biocontainment Screening …, 2010).

What is called IC50 is the concentration at which inhibition is half-maximal. The term IC90 denotes the concentration at which the effect reaches the 90% level. Low readings indicate an effect from little substance, high ones a need for much substance. As to `NC(=S)N/N=C/c1ccc2ccccc2c1`, the IC50 is 2.02 µM. The 50% inhibitory concentration (IC50) under setting [1] was > 100 µM. Besides, the concentration for an effect of 90% (IC90) under setting [2] is > 100 µM. In addition, the concentration for an effect of 90% (IC90) under setting [3] was > 100 µM.
For `Cc1ccc(C)c(SCc2noc(C(=O)NCC3CCCO3)c2C(=O)O)c1` (stereo not drawn), the IC50 is 44.3 µM (inactive). For the same compound, under setting [1], the half-inhibitory concentration (IC50) amounted to 50.7 µM. In addition, the IC90 under setting [2] was > 100 µM. This compound also registered an IC90 under setting [3] of 48 µM.
For `Cc1ccc(/C=C2/SC(=S)N(CC(=O)Nc3ncc(Cc4ccc(C)cc4)s3)C2=O)cc1`, the IC50 is > 100 µM (inactive). Moreover, under setting [1], the IC50 is > 100 µM. Further, under setting [2], the IC90 is > 100 µM. Further, the IC90 under setting [3] was > 100 µM.
As for `COc1ccc(S(=O)(=O)N(C(=O)c2ccncc2)c2ccc3oc4c(c3c2)CCCC4)cc1`, the IC50 was 99 µM (inactive). This compound had a half-maximal inhibitory concentration (IC50) under setting [1] of 94.7 µM. Besides, the IC90 under setting [2] was > 100 µM. Further, the concentration for an effect of 90% (IC90) under setting [3] is > 100 µM.
For `CCn1c(O)c(/C=N/NC(=O)c2ccccc2)c(=O)n(CC)c1=S`, the half-maximal inhibitory concentration (IC50) is 16.2 µM. The half-maximal inhibitory concentration (IC50) under setting [1] was > 100 µM. In addition, the 90% effect concentration (IC90) under setting [2] is > 100 µM. Under setting [3], the concentration for an effect of 90% (IC90) is > 100 µM.
Regarding `O=C(CN1CCN(c2ccccn2)CC1)Nc1ccc(Cl)c(C(F)(F)F)c1`, the IC50 is 58.5 µM (inactive). Under setting [1], this compound had an IC50 of 90.1 µM. The 90% effect concentration (IC90) under setting [2] is > 100 µM. For the same compound, the IC90 under setting [3] is > 100 µM.
Turning to `COC(=O)c1c(C(=O)OC)c(C)n(Cc2ccco2)c1C`, the IC50 is 64.4 µM (inactive). Also, under setting [1], the half-maximal inhibitory concentration (IC50) is > 100 µM. Further, under setting [2], the IC90 is > 100 µM. The IC90 under setting [3] is > 100 µM.
As for `Cc1cc(C)c(C)c(S(=O)(=O)N2C(=S)NC(=O)C2C(C)C)c1C` (stereo not drawn), the IC50 was 10.1 µM. Besides, the IC50 under setting [1] was 38.5 µM. Moreover, under setting [2], the 90% effect concentration (IC90) was > 100 µM. For the same compound, the IC90 under setting [3] is > 100 µM.
Take `Nc1nc(Sc2ncccc2[N+](=O)[O-])n[nH]1`: the IC50 was 21.6 µM (inactive). Further, the concentration for half-maximal inhibition (IC50) under setting [1] turned out to be 37.4 µM. The IC90 under setting [2] was > 50 µM. Further, the IC90 under setting [3] is 77.1 µM.
In the same order, the values of `O=C(/C=C/c1ccc2c(c1)OCO2)Nc1nc2ccccc2s1` are > 100 µM (inactive), > 100 µM, > 100 µM and > 100 µM.
In the same order, the values of `O=C(CCN1C(=O)/C(=C/c2ccccc2F)SC1=S)Nc1ccccn1` are > 100 µM (inactive), > 100 µM, > 100 µM and > 100 µM.
Taken in the same sequence, the figures for `Cn1nnnc1Sc1ncnc2scc(-c3cccc(F)c3)c12` were 15.4 µM, > 100 µM, > 100 µM and > 100 µM.
In the case of `O=C1CCNc2c(Cl)cccc21`, the IC50 was > 100 µM (inactive). Further, the IC50 under setting [1] is > 100 µM. For the same compound, the concentration for an effect of 90% (IC90) under setting [2] was > 100 µM. Moreover, the IC90 under setting [3] is > 100 µM.
For `CC(C)(C)c1ccc(OCc2ccc(C(=O)N/N=C3\CC4CC=CC34)cc2)cc1` (stereo not drawn), the IC50 is 26.2 µM (inactive). Under setting [1], the half-maximal inhibitory concentration (IC50) is 31.2 µM. The same compound returned a 90% effect concentration (IC90) under setting [2] of 46.5 µM. In addition, the concentration for an effect of 90% (IC90) under setting [3] turned out to be 45.3 µM.
Taken in the same sequence, the figures for `Cc1ccc(NC(=O)C2(c3ccccc3)CC2(Cl)Cl)cc1C` (stereo not drawn) were > 100 µM (inactive), > 100 µM, > 100 µM and > 100 µM.
Taken in the same sequence, the figures for `COC(=O)c1ccc(/C=N\NC(=O)c2ccc(C)cc2Cl)cc1` were > 100 µM (inactive), > 100 µM, > 100 µM and > 100 µM.
As for `CC(C)(C)c1cc(Cc2ccccc2)[nH]n1`, the IC50 was 28.2 µM (inactive). The compound also came in with an IC50 under setting [1] of 43.1 µM. Moreover, the IC90 under setting [2] is > 100 µM. Under setting [3], the IC90 is > 100 µM.
`COc1cccc(/C=C/c2[nH]c(=O)[nH]c(=O)c2[N+](=O)[O-])c1O`: the half-maximal inhibitory concentration (IC50) is 9.24 µM. The same compound yielded a half-inhibitory concentration (IC50) under setting [1] of 24.2 µM. For the same compound, the 90% effect concentration (IC90) under setting [2] turned out to be 26.6 µM. The compound also returned an IC90 under setting [3] of 15.9 µM.
Taken in the same sequence, the figures for `Cn1c(O)c(/C=C2/C=CC=N2)c(=O)[nH]c1=O` were 18.3 µM, > 100 µM, > 100 µM and > 100 µM.
In the same order, the values of `CC(C)NC(=O)C(=O)NNC(=O)C12CC3CC(CC(C3)C1)C2` are 15.6 µM, 81.8 µM, > 100 µM and > 100 µM.
In the same order, the values of `COCCCNc1nc(SCc2ccccc2)nc2sc3c(c12)CCC3` are 97.3 µM (inactive), > 100 µM, > 100 µM and > 100 µM.
Take `O=C(CSc1ncn[nH]1)Nc1cccc2ccccc12`: the IC50 is 29.6 µM (inactive). Under setting [1], this compound showed an IC50 of 50.7 µM. For the same compound, under setting [2], the IC90 is > 100 µM. The compound also registered an IC90 under setting [3] of 65 µM.
